Measurements: publication PMC5421785, “Citrullination only infrequently impacts peptide binding to HLA class II MHC” (PLoS ONE, 2017)
Read-outs that look alike come from different tables or passages of the source. Square brackets hold non-standard residues; d marks the D form. Peptide text beside a SMILES is read from it. Cit = NC(=O)NCCC[C@H](N)C(=O)O

What was measured:
[1] = target: T1, HLA-DRB1*01:01 (Homo sapiens, UniProt P01903+P01911, A100R/D57E/F55L/F60I/F76Y/I96L/L162R/M171V/P40L/Q125E/R42F/V115G/Y59C); assay: HLA class II peptide binding, inhibition of radiolabeled peptide binding to purified MHC
T1 construct: EBV transformed homozygous cell lines were used as sources of MHC molecules; endogenous in cells; host or cells: EBV transformed homozygous cell lines

[2] = target: T2, HLA-DRB1*04:01 (Homo sapiens, UniProt P01903+P01911, A100K/A169T/F76Y/I96L/K127E/L162R/M171V/N62H/P40V/Q125Y/R42H/S133A/S149N/S66Y/V115G/V209L/W38E); assay: as above
T2 construct: EBV transformed homozygous cell lines were used as sources of MHC molecules; endogenous in cells; host or cells: EBV transformed homozygous cell lines

[3] = citrullinated 15-mer peptide (X = citrulline), purified HLA-DRB1*01:01, read-out: DRB1*01:01 binding capacity, Cit peptide (IC50 nM)
[4] = citrullinated 15-mer peptide (X = citrulline), purified HLA-DRB1*04:01, read-out: DRB1*04:01 binding capacity, Cit peptide (IC50 nM)
[5] = citrullinated 15-mer (X), purified MHC, inhibition of radiolabeled peptide binding, dash = IC50 >40,000 nM, read-out: DRB1*01:01 binding capacity, Cit peptide (IC50 nM)
[6] = citrullinated 15-mer (X), purified MHC, inhibition of radiolabeled peptide binding, dash = IC50 >40,000 nM, read-out: DRB1*04:01 binding capacity, Cit peptide (IC50 nM)
[7] = ratio of WT IC50 to Cit IC50, >1 = citrullination increases binding

| SMILES | IC50 [1, 3] | IC50 [2, 4] | other results |
| --- | --- | --- | --- |
| CC[C@H](C)[C@H](NC(=O)[C@H](CC(N)=O)NC(=O)[C@H](CCC(N)=O)NC(=O)[C@H](CO)NC(=O)CNC(=O)[C@H](CCC(=O)O)NC(=O)[C@@H](NC(=O)[C@H](CO)NC(=O)[C@H](CC(C)C)NC(=O)[C@H](CC(C)C)NC(=O)[C@H](CCCNC(N)=O)NC(=O)[C@H](CC(C)C)NC(=O)[C@H](Cc1ccccc1)NC(=O)[C@@H](N)[C@@H](C)O)[C@@H](C)O)C(=O)N[C@H](C(=O)O)[C@@H](C)O [TFLXLLSTEGSQNIT] (H-TFL[Cit]LLSTEGSQNIT-OH) |  |  | IC50 ([1]; citrullinated peptide as listed (X at Cit position), read-out: DRB1*01:01 binding capacity Cit peptide (IC50 nM)): 5.6 nM; IC50 ([2]; citrullinated peptide as listed (X at Cit position), read-out: DRB1*04:01 binding capacity Cit peptide (IC50 nM)): 55 nM |
| CC(C)[C@H](NC(=O)[C@H](CCCNC(N)=O)NC(=O)CNC(=O)[C@H](C)NC(=O)[C@H](C)NC(=O)CNC(=O)[C@@H]1CCCN1C(=O)[C@H](Cc1ccccc1)NC(=O)CNC(=O)[C@@H](N)[C@@H](C)O)C(=O)NCC(=O)N1CCC[C@H]1C(=O)N1CCC[C@H]1C(=O)NCC(=O)N[C@@H](CO)C(=O)O [TGFPGAAGXVGPPGS] (H-TGFPGAAG[Cit]VGPPGS-OH) | 3470 nM | > 40000 nM |  |
| C[C@H](NC(=O)CNC(=O)[C@@H]1CCCN1C(=O)[C@@H]1CCCN1C(=O)CNC(=O)[C@H](CCC(N)=O)NC(=O)[C@H](C)NC(=O)CNC(=O)[C@H](CCCNC(N)=O)NC(=O)[C@H](C)NC(=O)CNC(=O)[C@H](CCCCN)NC(=O)[C@@H]1CCCN1C(=O)CNC(=O)[C@@H](N)[C@@H](C)O)C(=O)O [TGPKGAXGAQGPPGA] (H-TGPKGA[Cit]GAQGPPGA-OH) | 2690 nM | > 40000 nM |  |
| CC[C@H](C)[C@H](NC(=O)[C@H](CC(C)C)NC(=O)[C@H](CC(C)C)NC(=O)[C@@H](NC(=O)[C@H](CCCNC(=N)N)NC(=O)[C@H](CCCCN)NC(=O)[C@H](CO)NC(=O)[C@H](Cc1c[nH]cn1)NC(=O)[C@@H](N)[C@@H](C)O)[C@@H](C)O)C(=O)N[C@@H](CCCCN)C(=O)N[C@H](C(=O)N[C@H](C(=O)N[C@@H](CCC(=O)O)C(=O)N[C@H](C(=O)N[C@@H](CCCNC(N)=O)C(=O)O)[C@@H](C)O)C(C)C)[C@@H](C)O [THSKRTLLIKTVETX] (H-THSKRTLLIKTVET[Cit]-OH) | 310 nM | 6020 nM |  |
| CC[C@H](C)[C@H](NC(=O)[C@H](CC(C)C)NC(=O)[C@H](CC(C)C)NC(=O)[C@@H](NC(=O)[C@H](CCCNC(N)=O)NC(=O)[C@H](CCCCN)NC(=O)[C@H](CO)NC(=O)[C@H](Cc1c[nH]cn1)NC(=O)[C@@H](N)[C@@H](C)O)[C@@H](C)O)C(=O)N[C@@H](CCCCN)C(=O)N[C@H](C(=O)N[C@H](C(=O)N[C@@H](CCC(=O)O)C(=O)N[C@H](C(=O)N[C@@H](CCCNC(=N)N)C(=O)O)[C@@H](C)O)C(C)C)[C@@H](C)O [THSKXTLLIKTVETR] (H-THSK[Cit]TLLIKTVETR-OH) | 176 nM | 6430 nM |  |
| CC[C@H](C)[C@H](NC(=O)[C@H](CCC(=O)O)NC(=O)[C@H](CC(=O)O)NC(=O)[C@H](CCC(N)=O)NC(=O)[C@H](CC(C)C)NC(=O)[C@H](CCCNC(N)=O)NC(=O)CNC(=O)[C@@H](NC(=O)[C@@H](N)[C@@H](C)O)[C@@H](C)CC)C(=O)N[C@@H](CCC(N)=O)C(=O)N[C@@H](CC(N)=O)C(=O)N[C@@H](CCSC)C(=O)N[C@@H](CCCCN)C(=O)N[C@@H](CCC(=O)O)C(=O)N[C@@H](CCC(=O)O)C(=O)O [TIGXLQDEIQNMKEE] (H-TIG[Cit]LQDEIQNMKEE-OH) | > 40000 nM | 31800 nM |  |
| CC[C@H](C)[C@H](NC(=O)[C@@H](NC(=O)[C@H](CCC(N)=O)NC(=O)CNC(=O)[C@H](CC(=O)O)NC(=O)[C@H](CCCNC(N)=O)NC(=O)[C@@H](NC(=O)[C@H](CCC(=O)O)NC(=O)[C@@H](NC(=O)[C@@H](NC(=O)[C@H](CCCCN)NC(=O)[C@@H](NC(=O)[C@H](CC(C)C)NC(=O)[C@H](CC(C)C)NC(=O)[C@@H](N)[C@@H](C)O)[C@@H](C)CC)[C@@H](C)O)C(C)C)[C@@H](C)O)C(C)C)C(=O)O [TLLIKTVETXDGQVI] (H-TLLIKTVET[Cit]DGQVI-OH) | 2120 nM | 2260 nM |  |
| CC(C)C[C@H](NC(=O)[C@H](CCC(=O)O)NC(=O)[C@H](CCC(N)=O)NC(=O)[C@H](CC(C)C)NC(=O)[C@H](CCC(=O)O)NC(=O)[C@@H](NC(=O)[C@H](CCCCN)NC(=O)[C@H](CCC(=O)O)NC(=O)[C@H](CC(N)=O)NC(=O)[C@@H](N)[C@@H](C)O)C(C)C)C(=O)N[C@@H](CC(N)=O)C(=O)N[C@@H](CC(=O)O)C(=O)N[C@@H](CCCNC(N)=O)C(=O)N[C@@H](Cc1ccccc1)C(=O)N[C@@H](C)C(=O)O [TNEKVELQELNDXFA] (H-TNEKVELQELND[Cit]FA-OH) |  |  | IC50 [1, 5]: 5570 nM; IC50 [2, 6]: > 40000 nM |
| CSCC[C@H](NC(=O)[C@H](CCC(=O)O)NC(=O)[C@H](CCCNC(N)=O)NC(=O)[C@H](CCSC)NC(=O)[C@H](CCC(N)=O)NC(=O)[C@H](CCCNC(=N)N)NC(=O)[C@H](CCC(=O)O)NC(=O)[C@H](CC(C)C)NC(=O)[C@H](CO)NC(=O)[C@H](CCC(=O)O)NC(=O)[C@H](CC(N)=O)NC(=O)[C@@H](N)[C@@H](C)O)C(=O)N[C@@H](CCC(=O)O)C(=O)N[C@@H](CCC(=O)O)C(=O)N[C@@H](CC(N)=O)C(=O)O [TNESLERQMXEMEEN] (H-TNESLERQM[Cit]EMEEN-OH) | 29700 nM | > 40000 nM |  |
| CSCC[C@H](NC(=O)[C@H](CCC(=O)O)NC(=O)[C@H](CCCNC(=N)N)NC(=O)[C@H](CCSC)NC(=O)[C@H](CCC(N)=O)NC(=O)[C@H](CCCNC(N)=O)NC(=O)[C@H](CCC(=O)O)NC(=O)[C@H](CC(C)C)NC(=O)[C@H](CO)NC(=O)[C@H](CCC(=O)O)NC(=O)[C@H](CC(N)=O)NC(=O)[C@@H](N)[C@@H](C)O)C(=O)N[C@@H](CCC(=O)O)C(=O)N[C@@H](CCC(=O)O)C(=O)N[C@@H](CC(N)=O)C(=O)O [TNESLEXQMREMEEN] (H-TNESLE[Cit]QMREMEEN-OH; N-terminus and C-terminus assumed) | > 40000 nM | > 40000 nM | DRB1*01:01 binding capacity, WT/cit ratio [1, 7]: 0.318; DRB1*04:01 binding capacity, WT/cit ratio [2, 7]: 1.0 |
| CC(C)C[C@H](NC(=O)[C@H](CC(N)=O)NC(=O)[C@@H](N)[C@@H](C)O)C(=O)N[C@@H](CC(=O)O)C(=O)N[C@@H](CO)C(=O)N[C@@H](CC(C)C)C(=O)N1CCC[C@H]1C(=O)N[C@@H](CC(C)C)C(=O)N[C@H](C(=O)N[C@@H](CC(=O)O)C(=O)N[C@H](C(=O)N[C@@H](Cc1c[nH]cn1)C(=O)N[C@@H](CO)C(=O)N[C@@H](CCCCN)C(=O)N[C@@H](CCCNC(N)=O)C(=O)O)[C@@H](C)O)C(C)C [TNLDSLPLVDTHSKX] (H-TNLDSLPLVDTHSK[Cit]-OH) | 772 nM | > 40000 nM |  |
| CC[C@H](C)[C@H](NC(=O)[C@@H](NC(=O)[C@H](CCC(N)=O)NC(=O)CNC(=O)[C@H](CC(=O)O)NC(=O)[C@H](CCCNC(N)=O)NC(=O)[C@@H](NC(=O)[C@H](CCC(=O)O)NC(=O)[C@@H](NC(=O)[C@@H](N)[C@@H](C)O)C(C)C)[C@@H](C)O)C(C)C)C(=O)N[C@@H](CC(N)=O)C(=O)N[C@@H](CCC(=O)O)C(=O)N[C@H](C(=O)N[C@@H](CO)C(=O)N[C@@H](CCC(N)=O)C(=O)O)[C@@H](C)O [TVETXDGQVINETSQ] (H-TVET[Cit]DGQVINETSQ-OH) | 7860 nM | 14300 nM |  |
| CC(C)C[C@H](NC(=O)[C@H](CCC(N)=O)NC(=O)[C@H](CC(=O)O)NC(=O)[C@@H](N)C(C)C)C(=O)N[C@H](C(=O)N[C@@H](CC(N)=O)C(=O)N[C@@H](CC(=O)O)C(=O)N[C@@H](CCCCN)C(=O)N[C@@H](C)C(=O)N[C@@H](CCCNC(=N)N)C(=O)N[C@H](C(=O)N[C@@H](CCC(=O)O)C(=O)N[C@H](C(=O)N[C@@H](CCC(=O)O)C(=O)N[C@@H](CCCNC(N)=O)C(=O)O)C(C)C)C(C)C)[C@@H](C)O [VDQLTNDKARVEVEX] (H-VDQLTNDKARVEVE[Cit]-OH) |  |  | IC50 [1, 5]: 7420 nM; IC50 [2, 6]: > 40000 nM |
| CC(C)C[C@H](NC(=O)[C@H](CCC(N)=O)NC(=O)[C@H](CC(=O)O)NC(=O)[C@@H](N)C(C)C)C(=O)N[C@H](C(=O)N[C@@H](CC(N)=O)C(=O)N[C@@H](CC(=O)O)C(=O)N[C@@H](CCCCN)C(=O)N[C@@H](C)C(=O)N[C@@H](CCCNC(N)=O)C(=O)N[C@H](C(=O)N[C@@H](CCC(=O)O)C(=O)N[C@H](C(=O)N[C@@H](CCC(=O)O)C(=O)N[C@@H](CCCNC(=N)N)C(=O)O)C(C)C)C(C)C)[C@@H](C)O [VDQLTNDKAXVEVER] (H-VDQLTNDKA[Cit]VEVER-OH) |  |  | IC50 [1, 5]: 20400 nM; IC50 [2, 6]: > 40000 nM |
| CC[C@H](C)[C@H](NC(=O)[C@H](CC(=O)O)NC(=O)[C@H](CCC(=O)O)NC(=O)[C@H](C)NC(=O)[C@H](CC(C)C)NC(=O)[C@H](CC(N)=O)NC(=O)[C@H](CC(=O)O)NC(=O)[C@H](CCCNC(=N)N)NC(=O)[C@H](CCC(=O)O)NC(=O)[C@@H](NC(=O)[C@H](CCC(=O)O)NC(=O)[C@@H](N)C(C)C)C(C)C)C(=O)N[C@@H](CCSC)C(=O)N[C@@H](CCCNC(N)=O)C(=O)N[C@@H](CC(C)C)C(=O)O [VEVERDNLAEDIMXL] (H-VEVERDNLAEDIM[Cit]L-OH) |  |  | IC50 [1, 5]: 19600 nM; IC50 [2, 6]: 17100 nM |
